The values below come from patent US10640515B2, “Hepatitis C virus inhibitor and uses thereof” (priority 2016, dated 2020).

Data set [1] can be described thus: CC50 by CellTiter-GLO kit, HCV-1a replicon cell. The following applies: human. The class given is cell-based. From the text:
(§1) A Huh7-Con1b cell line contained an HCV 1b-genotype replicon Con1b and a reporter gene of firefly luciferase. An Huh7-H77 and an Huh7-JFH1 cell line both contained a reporter gene of renilla luciferase and respectively contained an HCV 1a-genetype replicon H77 and an HCV 2a-genetype replicon JFH1. The replication level of HCV in host cells can be characterized by the expression of the firefly luciferase gene or the renilla luciferase gene. The effect of the compounds described herein on the HCV replication can be evaluated through a chemiluminescence detection of the expression of the above two luciferase genes. Meanwhile, the CC50 value of each Huh7 cell line was measured using a CellTiter GLO kit to evaluate the toxicity of the compounds.
(§2) The compounds described herein were subjected to three-fold serial dilutions using a Bravo liquid treatment system to obtain a total of 11 concentration points prior to cell plating. The prepared compounds were added to cell culture plates using an Echo 550 system. The Huh7-H77 and the Huh7-JFH1 cells were inoculated into the 96-well plate added with the compounds at an amount of 10000 cells per well. The Huh7-Con1b and the Huh7 cells were inoculated into the 384-well plate added with the compounds at an amount of 5000 cells per well. The cell culture plates were incubated in a CO2 incubator (5%) at 37° C. for 72 hours.
(§3) The CellTiter-GLO reagent was heated to room temperature. The 384-well plate plated with the Huh 7 cells was transferred from the incubator and cooled at room temperature for 20 minutes. Each well was added with 50 μL of the CellTiter-GLO reagent (Promega Inc.), and then the 384-well plate was shaken for 2 minutes. The 384-well plate was subsequently incubated in a dark environment at room temperature for 10 minutes. After the incubation, the 384-well plate was read using an Envision Plate Reader at a signal accumulation time of per well of 0.1 s.

A short description of data set [2]: CC50 by CellTiter-GLO kit, HCV-1b replicon cell. The class given is cell-based. Conditions: human.
Excerpt: as §1, §2, §3

The test system of data set [3] is HCV 2a-genetype replicon JFH1. The experiment in a line: HCV replicon luciferase assay, HCV-2a replicon (Huh7-JFH1, renilla luciferase). Conditions: Huh7-JFH1 cells. The class given is cell-based, hepatitis C virus (HCV).
Excerpt: (§4) The HCV replicon was first reported in Science. 1999 Jul. 2; 285 (5424), 110-3. The HCV replicon system has been one of the most important tools to investigate the RNA replication, pathogenicity and virus persistence of HCV. For example, the replicon has been successfully used to verify the 5′-NCR minimum region essential for HCV RNA replication, in addition, the HCV replicon system has been successfully used as an evaluation model for antiviral drugs.
(§5) In brief, three stably-transfected cell lines containing different HCV genotypes of replicons were used to test activity of the compounds in inhibiting the HCV replication.
as §1, §2
(§6) The 96-well plate was taken out of the incubator and cooled at room temperature for 30 minutes. After removing the medium, each well was added with 30 μL of a diluted Promega lysate (diluted using pure water in a volume ratio of 1:4). The 96-well plate was placed in a shaker at a shaking rate of 1000 rpm at room temperature for 15 minutes. Each well was added with 100 μL of a diluted Premega luciferase reagent (Promega Inc.) (diluted using a substrate buffer in a volume ratio of 1:99) and then, the 96-well plate was immediately read using an Envision Plate Reader at a signal accumulation time of per well of 0.1 s.

Data set [4] relates to HCV 1a-genetype replicon H77. The data set can be described thus: HCV replicon luciferase assay, HCV-1a replicon (Huh7-H77, renilla luciferase). The class given is cell-based. The following applies: Hepatitis C virus, Huh7-H77 cells, 72 hours.
Excerpt: as §4, §5, §1, §2, §6

Data set [5] deals with HCV 1b-genotype replicon Con1b. The data set can be described thus: HCV replicon luciferase assay, HCV-1b replicon (Huh7-Con1b, firefly luciferase). The class given is cell-based. Conditions: Hepatitis C virus, Huh7-Con1b cells, 72 hours.
Excerpt: as §5, §1, §2
The 384-well plate was taken out of the incubator and cooled at room temperature for 30 minutes. After removing the medium, each well was added with 50 μL of DPBS (Dulbecco's Phosphate Buffered Saline) and then added with 50 μL of a Britelit plus reagent (PerkinElmer Inc.). Then the 384-well plate was placed in a shaker at a shaking rate of 1000 rpm at room temperature for 1 minute. Finally, the 384-well plate was read using an Envision Plate Reader at a signal accumulation time of per well of 0.1 s.

Data set [6] can be described thus: CC50 by CellTiter-GLO kit, HCV-2a replicon cell. The following applies: human. The class given is cell-based.
Excerpt: as §1, §2, §3

For data set [7] the following is noted: in the rats, reported in a literature; cited from earlier work.

Regarding `COC(=O)N[C@H](C(=O)N1CCC[C@H]1C(=O)Nc1ccc2c(c1)O[C@H](c1ccccc1)n1c-2cc2cc(NC(=O)[C@@H]3CCCN3C(=O)[C@@H](NC(=O)OC)C(C)C)ccc21)C(C)C` [PA6001-A], the CC50 at 72 h in data set [1], in data set [2] and in data set [6] was greater than 100000 pM in each case. Moreover, the EC50 in data set [3] (Hepatitis C virus, 72 h) was found to be 54.6 pM; in data set [4], 2940 pM; in data set [5], 8.14 pM.
Consider `COC(=O)N[C@H](C(=O)N1CC(F)(F)C[C@H]1C(=O)Nc1ccc2c(c1)OC(c1cc(F)cc(F)c1)n1c-2cc2cc(NC(=O)[C@@H]3CC(F)(F)CN3C(=O)[C@@H](NC(=O)OC)C(C)C)ccc21)C(C)C` (some centres unmarked) [PA6019], for which the CC50 at 72 h in data set [1], in data set [2] and in data set [6] was greater than 100000 pM throughout. For the same molecule, the EC50 is 234 pM in data set [3] (Hepatitis C virus, 72 h) and 53.4 pM in data set [4].
As for `COC(=O)N[C@H](C(=O)N1CCC[C@H]1C(=O)Nc1ccc2c(c1)OC(c1cc(F)cc(F)c1)n1c-2cc2cc(NC(=O)[C@@H]3CCCN3C(=O)[C@@H](NC(=O)OC)C(C)C)ccc21)C(C)C` (some centres unmarked) [PA6016], the CC50 at 72 h in data set [1], in data set [2] and in data set [6] was greater than 100000 pM throughout. Also, the EC50 in data set [3] (Hepatitis C virus, 72 h) was 40 to 50 pM; in data set [3] (72 hours), 49.9 pM; in data set [4], 43.3 pM; in data set [5], 3.65 pM.
As for `COC(=O)N[C@H](C(=O)N1CC2(CC2)C[C@H]1C(=O)Nc1ccc2c(c1)OC(c1ccccc1)n1c-2cc2cc(NC(=O)[C@@H]3CC4(CC4)CN3C(=O)[C@@H](NC(=O)OC)C(C)C)ccc21)C(C)C` (some centres unmarked) [PA6002], the CC50 at 72 h in data set [1], in data set [2] and in data set [6] was greater than 100000 pM in each case. Moreover, the EC50 in data set [3] (Hepatitis C virus, 72 h) amounted to 148 pM; in data set [4], 30 pM; in data set [5] it was 5 pM.
On to `COC(=O)N[C@H](C(=O)N1CCC[C@H]1C(=O)Nc1ccc2c(c1)O[C@@H](c1ccccc1)n1c-2cc2cc(NC(=O)[C@@H]3CCCN3C(=O)[C@@H](NC(=O)OC)C(C)C)ccc21)C(C)C` [PA6001-B], for which the CC50 at 72 h in data set [1], in data set [2] and in data set [6] was greater than 100000 pM each time. In addition, the EC50 in data set [3] (Hepatitis C virus, 72 h) was 62.6 pM; in data set [4], 59.3 pM; in data set [5], 6.8 pM.
Consider `COC(=O)N[C@H](C(=O)N1C[C@H](F)C[C@H]1C(=O)Nc1ccc2c(c1)OC(c1cc(F)cc(F)c1)n1c-2cc2cc(NC(=O)[C@@H]3C[C@H](F)CN3C(=O)[C@@H](NC(=O)OC)C(C)C)ccc21)C(C)C` (some centres unmarked) [PA6018], for which the CC50 at 72 h in data set [1], in data set [2] and in data set [6] was greater than 100000 pM in each case. The EC50 came out at 102 pM in data set [3] (Hepatitis C virus, 72 h); 35.1 pM in data set [4]; 2.95 pM in data set [5].
Turning to `COC(=O)N[C@H](C(=O)N1CC2(CC2)C[C@H]1C(=O)Nc1ccc2c(c1)OC(c1cc(F)cc(F)c1)n1c-2cc2cc(NC(=O)[C@@H]3CC4(CC4)CN3C(=O)[C@@H](NC(=O)OC)C(C)C)ccc21)C(C)C` (some centres unmarked) [PA6017], the CC50 at 72 h in data set [1], in data set [2] and in data set [6] was greater than 100000 pM throughout. The EC50 in data set [3] (Hepatitis C virus, 72 h) is 743 pM; in data set [4], 26.8 pM; in data set [5], 2.36 pM.
As to `COC(=O)N[C@H](C(=O)N1CCC[C@H]1C(=O)Nc1ccc2c(c1)O[C@@H](c1cc(F)c(F)c(F)c1)n1c-2cc2cc(NC(=O)[C@@H]3CCCN3C(=O)[C@@H](NC(=O)OC)C(C)C)ccc21)C(C)C` [PA6032], the CC50 at 72 h in data set [1], in data set [2] and in data set [6] was greater than 100000 pM each time. In addition, the EC50 in data set [3] (Hepatitis C virus, 72 h) came to 147 pM; in data set [4] it was 16.8 pM; in data set [5] it was 3.04 pM.
Consider `COC(=O)N[C@H](C(=O)N1CCC[C@H]1C(=O)Nc1ccc2c(c1)O[C@@H](c1c(F)c(F)cc(F)c1F)n1c-2cc2cc(NC(=O)[C@@H]3CCCN3C(=O)[C@@H](NC(=O)OC)C(C)C)ccc21)C(C)C` [PA6031], for which the CC50 at 72 h in data set [1], in data set [2] and in data set [6] was greater than 100000 pM each time. In addition, the EC50 in data set [3] (Hepatitis C virus, 72 h) is 40 to 50 pM; in data set [3] (72 hours), 40.1 pM; in data set [4] it was 36.9 pM; in data set [5] it was 2.3 pM.
As to `COC(=O)N[C@H](C(=O)N1C[C@H](F)C[C@H]1C(=O)Nc1ccc2c(c1)OC(c1ccccc1)n1c-2cc2cc(NC(=O)[C@@H]3C[C@H](F)CN3C(=O)[C@@H](NC(=O)OC)C(C)C)ccc21)C(C)C` (some centres unmarked) [PA6010], the CC50 at 72 h in data set [1], in data set [2] and in data set [6] was greater than 100000 pM in each case. The EC50 in data set [3] (Hepatitis C virus, 72 h) was determined as 200 pM; in data set [4], 107 pM; in data set [5] it was 4.5 pM.
As to `COC(=O)N[C@H](C(=O)N1CCC[C@H]1C(=O)Nc1ccc2c(c1)O[C@@H](c1cc(F)cc(F)c1)n1c-2cc2cc(NC(=O)[C@@H]3CCCN3C(=O)[C@@H](NC(=O)OC)C(C)C)ccc21)C(C)C` [PA6016-B], the CC50 at 72 h in data set [1], in data set [2] and in data set [6] was greater than 100000 pM throughout. In addition, the concentration for a half-maximal effect (EC50) was found to be 61.5 pM in data set [3] (Hepatitis C virus, 72 h); 18 pM in data set [4]; 4.34 pM in data set [5].
For `COC(=O)N[C@H](C(=O)N1CC(F)(F)C[C@H]1C(=O)Nc1ccc2c(c1)OC(c1ccccc1)n1c-2cc2cc(NC(=O)[C@@H]3CC(F)(F)CN3C(=O)[C@@H](NC(=O)OC)C(C)C)ccc21)C(C)C` (some centres unmarked) [PA6011], the CC50 at 72 h in data set [1], in data set [2] and in data set [6] was greater than 100000 pM each time. Also, the EC50 in data set [3] (Hepatitis C virus, 72 h) was determined as 312 pM; in data set [4] it was 47.6 pM; in data set [5], 1.18 pM.
As for `COC(=O)N[C@H](C(=O)N1CCC[C@H]1C(=O)Nc1ccc2c(c1)O[C@@H](c1c(F)c(F)c(F)c(F)c1F)n1c-2cc2cc(NC(=O)[C@@H]3CCCN3C(=O)[C@@H](NC(=O)OC)C(C)C)ccc21)C(C)C` [PA6030], the CC50 at 72 h in data set [1], in data set [2] and in data set [6] was greater than 100000 pM in each case. In addition, the EC50 turned out to be 207 pM in data set [3] (Hepatitis C virus, 72 h); 76.3 pM in data set [4]; 3.15 pM in data set [5].
As to `COC(=O)N[C@H](C(=O)N1CCC[C@H]1C(=O)Nc1ccc2c(c1)OC(c1ccccc1)n1c-2cc2cc(NC(=O)[C@@H]3CCCN3C(=O)[C@@H](NC(=O)OC)C(C)C)ccc21)C(C)C` (some centres unmarked) [PA6001], the CC50 at 72 h in data set [1], in data set [2] and in data set [6] was greater than 100000 pM in each case. Moreover, the EC50 is 59 pM in data set [3] (Hepatitis C virus, 72 h); 1570 pM in data set [4]; 20 pM in data set [5].
`COC(=O)N[C@H](C(=O)N1CCC[C@H]1C(=O)Nc1ccc([C@@H]2CC[C@@H](c3ccc(NC(=O)[C@@H]4CCCN4C(=O)[C@@H](NC(=O)OC)C(C)C)cc3)N2c2ccc(C(C)(C)C)cc2)cc1)C(C)C` [ABT-267]: the bioavailability in data set [7] is given as 100%.
